These results are taken from US12037361B2, “Methods for treating multidrug resistant breast cancer” (THE HONG KONG POLYTECHNIC UNIVERSITY, priority 2021, dated 2024).

Data set [1] concerns MCF7 human breast cancer xenograft. The data set is described as follows: In vivo efficacy study in MCF7 breast cancer xenograft model. The procedure:
Data obtained are analyzed to evaluate treatment outcomes. Tumor doubling time is calculated using tumor volumes obtained from the end of experiment versus the tumor volumes on the first day of treatment. Tumor inhibition (%) is calculated using the tumor volumes obtained from the end of experiment. Corresponding equations of determining tumor inhibition (T/C) and tumor doubling time (Td) are provided as follows:
(Q) In Vivo Efficacy Study of DRI-TAT-SP Combined with DOX in Treating MCF7 Breast Cancer Xenograft Model:
Six- to eight-week-old female Balb/c nude mice were maintained under specific pathogen-free conditions prior to in vivo efficacy study. Each animal was implanted with a piece of […] pellet 0.72 mg, 60-day release. (Cat No. SE-121, Innovative Research of America, Sarasota, FL). Four days later, the nude mice were inserted at the both flanks with a sesame sized (around 10 mm^3) MCF-7 tumor piece originated from a tumor bulk. When the tumor reached approximately 100 mm^3 (21-28 days), the mice were randomized and administered intravenously with (1) 1×PBS, (2) DOX 1.2 mg/kg, (3) DRI-TAT-SP 25 mg/kg or (4) DOX 1.2 mg/kg+DRI-TAT-SP 25 mg/kg once every 2 days for a total of 10 injections. Tumor volume was measured using digital caliper once every 4 days. Estimated tumor volume (mm^3) was calculated as ½×length (mm)×width (mm)^2. The mouse body weights were recorded once every two days. The tumor doubling time (Td) was calculated as t×log 2/log(Vf/V0), where t, Vf and V0 stand for interval time, percentage change of tumor volume on final day and percentage change of tumor volume on initial day.

Another data set is described as follows: FIG. 7B. From the text: Table printed on a drawing sheet, FIG. 7B
First reader's note: The table is printed as an inset in the plasma level versus time plot of DRI-TAT-SP, and the substance name is taken from the plot axis.

Another data set concerns MCF-7 CSC. The data set is described as follows: Reversal of chemoresistance in MCF-7 CSC (MTS cell viability assay). Type of data set: cell-based, human. The procedure: (L) Determination of 50% Inhibitory Concentration (IC50) by MTS Assay:
MCF-7 AC and derived cells were seeded onto 96-well plates at a density of 1×10^4 cells per well and treatments of anticancer drugs or peptides were administered accordingly. Following 72-hour incubation at 37° C. with 5% CO2, cell viability was assessed using CellTiter 96 AQueous Non-Radioactive Cell Proliferation Assay (Promega). The IC50 value was estimated from the optical density at 492 nm using GraphPad.
(In general: Tetrazolium assays rely on reduction of a dye to a coloured formazan, in cell work by metabolically active cells.)

The next data set can be described thus: in vivo. Also on record: species or system Balb/c mice. The following applies: mouse, iv, 25 mg/kg. The method, then:
(M) Pharmacokinetic Study of SHARPIN-Derived Peptides:
SHARPIN-derived peptides powder was dissolved in 1×PBS and administered intravenously at 25 mg/kg to overnight-starved Balb/c mice (n=3). At different time points (5, 15, 30, 60, 120, 240, 420 min), blood was collected via cardiac puncture and placed in a heparinized Eppendorf tube followed by centrifuged at 14,000 rpm for 5 min to obtain blood plasma. Plasma was stored at −80° C. until analysis. Plasma concentration data were analyzed by non-compartmental model. Area under plasma concentration-time curve (AUC), distribution half-life (t1/2α) and elimination half-life (t1/2β) were calculated by PK solution2.0 (Summit Research Service, Ashland, USA).
(O) UPLC/QQQ-MS Analysis Protocol:
Agilent 6460 Ultra Performance Liquid Chromatography-Electrospray Ionization Triple Quadrupole mass spectrometer (UPLC-QQQ-MS) was used in sample separation, peptide detection and quantification. Waters Acquity UPLC BEH Protein C4 column (1.7 μm, 2.1×100 mm) was used for separation. SHARPIN-derived peptides were separated and eluted by a gradient of water (0.1% FA, v/v) and acetonitrile (ACN) (0.1% FA, v/v) at a constant flow rate of 0.3 mL/min. During separation, an elution protocol was used as follows. Equilibration: 0 to 1 min, 5% ACN. Elution gradient: 1 to 10 min, ACN from 5 to 99%. Regeneration: 10 to 11 min, 99% ACN, then 11 to 11.5 min, ACN from 99% to 5%. Re-equilibration: 11.5 to 13 min: 5% acetonitrile. A hundred microlitres of plasma/tumor samples were added with 300 μL acetonitrile (1% formic acid (FA)) for protein and peptide precipitation. […] after centrifugation at 14,000 rpm for 10 minutes. Then the samples were reconstituted in 50% methanol (0.1% FA, v/v), filtered through a 0.22 μm nylon filter, and kept in the autosampler at 4° C. for analysis. Twenty microliters were injected into the MS. The MS was operated in positive electrospray ionization (ESI+) mode with supply of 300° C. gas temperature and sheath gas temperature, 8 L/min drying gas, and 11 L/min sheath gas flow and 3.5 kV capillary voltage. The signals of TAT-SP and DRI-TAT-SP were recorded at m/z 563 to 661 at collision energy (CE) of 15 eV and m/z 569 to 637 at CE of 20 eV, respectively. TAT-SP and DRI-TAT-SP were eluted at 4.05 and 3.86 minutes, respectively.

For a further data set, the system named is Akt pathway. The data set is described as follows: Western blotting of p-Akt (T308) in CSCs. The following applies: 1 μM peptide for 24 hours. The format is cell-based, human. The procedure: (K) Protein Preparation and Western Blotting:
Total protein was extracted with RIPA buffer supplied with protease inhibitor (Roche), resolved in 10% SDS-PAGE and transferred onto Immobilon-P PVDF membrane (Millipore). Membranes were blocked with 5% non-fat dry milk in Tris-buffered saline with 0.1% Tween (TBST) for 2 hours, then were incubated overnight with corresponding antibodies at 4° C., followed by incubation with horseradish peroxidase-conjugated goat anti-mouse IgG (Santa Cruz Biotechnology) or goat anti-rabbit IgG (Santa Cruz Biotechnology) as appropriate, for 2 hours at room temperature in TBST. Antibody binding was detected with Pierce ECL Western Blotting Substrate (Thermo Scientific) and images were visualized with Azure C600 imaging system (Azure Biosystems). The antibodies used were anti-ITGA2 (Abcam), anti-CRT (CST), anti-ILR2 (CST), anti-MRP1/ABCC1 (CST), anti-Mdr-1 (Santa Cruz Biotechnology), anti-Akt (pan) (CST), anti-pAkt (S473) (CST), anti-pAkt (T308) (CST), p53 (Santa Cruz Biotechnology) and anti-β-actin (Santa Cruz Biotechnology).
Background: In western blotting, separated proteins are transferred to a membrane and probed.

A further data set concerns MRP1. The data set is described as follows: DOX accumulation assay in CSCs. Type of data set: cell-based, human. The conditions noted are these: 5 μM DOX, 1 μM peptide for 24 hours. The method, then: (I) DOX Accumulation Assay:
To assess MRP1 activity, 2×10^5 MCF-7 AC and derived cells, with or without 24-hour incubation of 1 μM TAT-SP or TAT-SPScr, were treated with 5 μM DOX at 37° C. for 2 hours. After removal of extracellular drugs, cells were divided into two equal halves. One half was lysed with lysis buffer (isopropanol with 0.75 M HCl and 0.2% Triton X-100) at room temperature for 30 minutes; the other half was incubated with 5 μM CMFDA (Invitrogen) in darkness at room temperature for 30 minutes. The fluorescent intensities of drugs and dyes were detected with CLARIOstar (BMG LABTECH) and relative drug concentrations were normalized to CMFDA level.

Another data set deals with T1, ITGA2/CRT interaction (Homo sapiens, UniProt P17301).
T1 construct: endogenous in cells; host or cells: MCF-7-derived cells (lysate)
The data set is described as follows: Co-immunoprecipitation with anti-CRT antibody: competition with CRT for KXGFFKR motif of ITGA2. The following applies: CSC lysate immunoprecipitated with anti-CRT antibody; TAT peptides at 1 μM for 24 hours. Type of data set: binding. The procedure:
Calreticulin (CRT) from MCF-7-derived cells was immunoprecipitated by anti-CRT (CST) antibody. In brief, MCF-7-derived cells, with or without 24-hour incubation of 1 μM TAT-SP or TAT-SPScr, were collected and subsequently lysed with RIPA buffer on ice for 30 minutes. The lysate was diluted 5-fold with PBS and incubated with anti-CRT antibody overnight at 4° C. with simultaneous mixing on a rotating platform, followed by further incubation of Protein-G PLUS agarose (Santa Cruz Biotechnology) at 4° C. for at least 2 hours.
After incubation, agarose beads were centrifuged and washed by PBS. Immunoprecipitated proteins were collected by treating the beads with 0.2 M glycine and subjected to Western Blotting (WB) analysis.

The next data set concerns CSCs. The data set is described as follows: Annexin V apoptosis assay by flow cytometry in CSCs. The format is cell-based, human. The conditions noted are these: 1 μM DOX for 24 hours, 1 μM peptide. The procedure:
(F) Flow Cytometry Analysis:
Cells were detached by Phosphate buffered saline (PBS) with 2.5 mM EDTA and washed with PBS. For determining CSC population, a total of 1×10^6 cells were incubated with APC-CD44 (BD Biosciences) and PE-CD24 (BD Biosciences) in FACS solution (PBS with 1% BSA and 1 mM EDTA) for 30 minutes on ice. APC-IgG2 (BD Biosciences) and PE-IgG2 (BD Biosciences) were used as isotype controls. For determining apoptotic population, a total of 1×10^6 cells were first treated with or without 1 μM DOX for 24 hours, in the absence or presence of 1 μM TAT-SP or TAT-SPScr, followed by incubation with FITC-Annexin V (BD Biosciences) and propidium iodide (PI) in binding buffer (10 mM Hepes, pH 7.4, 140 mM NaCl and 2.5 mM CaCl2) for 30 minutes on ice as per the manufacturer's instructions. For determining CRT surface localization, a total of 1×10^6 cells, treated with or without 1 μM DOX for 24 hours, were incubated with anti-CRT antibody (1:800, CST) in PBS with 3% BSA for 1 hour on ice. After washing with PBS, cells were further incubated with 2 μg/mL goat anti-rabbit Alexa Fluor 488 (Invitrogen) for 45 minutes on ice. Fluorescence signals were analyzed by BD Accuri C6 flow cytometer (BD Biosciences).
(In general: In flow cytometry, cells or beads pass a laser one at a time.)

Residues, ends and D or L forms follow the SMILES beside them.

In general, EC50 refers to the concentration that produces a half-maximal response. As a reminder, the Cmax is the maximum level reached in the sampled fluid or tissue. As usually defined, the half-life is the time in which the quantity being followed falls by half.

T1 sequence (P17301 30-1181): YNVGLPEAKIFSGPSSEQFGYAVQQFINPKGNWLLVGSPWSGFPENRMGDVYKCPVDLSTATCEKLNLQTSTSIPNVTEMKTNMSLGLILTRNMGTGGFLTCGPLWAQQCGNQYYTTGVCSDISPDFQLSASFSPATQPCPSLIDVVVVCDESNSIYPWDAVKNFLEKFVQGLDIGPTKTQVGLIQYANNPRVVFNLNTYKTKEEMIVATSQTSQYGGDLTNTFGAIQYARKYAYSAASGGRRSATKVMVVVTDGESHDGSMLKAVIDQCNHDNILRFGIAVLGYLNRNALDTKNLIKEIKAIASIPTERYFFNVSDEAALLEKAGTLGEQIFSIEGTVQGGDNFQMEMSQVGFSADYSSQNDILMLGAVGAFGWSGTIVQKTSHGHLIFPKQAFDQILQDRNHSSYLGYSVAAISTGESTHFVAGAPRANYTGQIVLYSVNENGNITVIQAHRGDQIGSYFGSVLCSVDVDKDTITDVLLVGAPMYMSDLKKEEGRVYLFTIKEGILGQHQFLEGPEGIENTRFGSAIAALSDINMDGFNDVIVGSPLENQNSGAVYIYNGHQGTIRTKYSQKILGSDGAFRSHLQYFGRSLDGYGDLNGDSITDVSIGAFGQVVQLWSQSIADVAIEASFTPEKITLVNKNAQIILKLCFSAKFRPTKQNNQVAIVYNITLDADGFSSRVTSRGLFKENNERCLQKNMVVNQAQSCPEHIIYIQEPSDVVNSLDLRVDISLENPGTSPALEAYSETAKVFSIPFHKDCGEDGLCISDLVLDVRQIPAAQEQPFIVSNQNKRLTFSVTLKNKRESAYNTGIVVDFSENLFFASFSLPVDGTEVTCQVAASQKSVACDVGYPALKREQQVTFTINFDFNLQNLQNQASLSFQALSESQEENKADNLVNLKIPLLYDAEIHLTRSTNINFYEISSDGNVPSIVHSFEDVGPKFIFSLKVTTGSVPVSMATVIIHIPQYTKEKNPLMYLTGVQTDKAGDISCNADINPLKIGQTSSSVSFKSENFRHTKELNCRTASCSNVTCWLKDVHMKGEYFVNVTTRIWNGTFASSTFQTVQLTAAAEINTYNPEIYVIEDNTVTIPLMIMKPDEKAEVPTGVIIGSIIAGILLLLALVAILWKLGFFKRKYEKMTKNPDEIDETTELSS
T1 sequence (P05556 21-798 partner): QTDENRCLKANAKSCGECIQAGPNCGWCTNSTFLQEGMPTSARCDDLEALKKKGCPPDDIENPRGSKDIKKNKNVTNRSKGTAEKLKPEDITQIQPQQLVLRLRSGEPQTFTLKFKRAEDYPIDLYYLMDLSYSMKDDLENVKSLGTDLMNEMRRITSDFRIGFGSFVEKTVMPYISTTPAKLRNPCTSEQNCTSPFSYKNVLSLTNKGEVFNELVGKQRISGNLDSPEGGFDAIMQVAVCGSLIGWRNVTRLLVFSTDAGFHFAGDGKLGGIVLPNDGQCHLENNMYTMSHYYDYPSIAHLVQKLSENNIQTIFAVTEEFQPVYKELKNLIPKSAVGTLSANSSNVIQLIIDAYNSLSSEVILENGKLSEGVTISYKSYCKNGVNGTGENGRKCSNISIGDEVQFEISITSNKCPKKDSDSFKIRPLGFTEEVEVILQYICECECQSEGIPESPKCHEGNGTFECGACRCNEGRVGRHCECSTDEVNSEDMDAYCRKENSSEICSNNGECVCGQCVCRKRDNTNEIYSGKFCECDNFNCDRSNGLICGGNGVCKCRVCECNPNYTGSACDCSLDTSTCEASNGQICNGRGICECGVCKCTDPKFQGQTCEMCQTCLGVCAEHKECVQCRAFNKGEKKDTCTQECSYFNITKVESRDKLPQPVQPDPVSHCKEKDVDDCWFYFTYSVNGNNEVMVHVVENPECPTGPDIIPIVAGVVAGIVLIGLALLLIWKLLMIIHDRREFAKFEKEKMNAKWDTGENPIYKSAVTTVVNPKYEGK

Regarding `CC[C@@H](C)[C@@H](NC(=O)CNC(=O)[C@@H](CCCNC(=N)N)NC(=O)[C@@H](CS)NC(=O)[C@@H](CC(C)C)NC(=O)[C@@H](CS)NC(=O)[C@H](NC(=O)[C@H]1CCCN1C(=O)[C@@H](CCC(=O)O)NC(=O)[C@@H](CCCNC(=N)N)NC(C)=O)C(C)C)C(=O)N[C@@H](C(=O)N[C@H](Cc1c[nH]c2ccccc12)C(=O)N[C@H](CCCNC(=N)N)C(=O)N[C@H](CCC(N)=O)C(=O)N[C@@H](C(=O)N[C@H](C)C(=O)N1CCC[C@@H]1C(=O)N1CCC[C@@H]1C(=O)N[C@H](Cc1ccccc1)C(=O)NCC(=O)N[C@H](CC(C)C)C(=O)N[C@H](CCC(=O)O)C(=O)N[C@H](CO)C(=O)N[C@H](CCCNC(=N)N)C(=O)N[C@H](CCCNC(=N)N)C(=O)N[C@H](CCCNC(=N)N)C(=O)N[C@H](CCC(N)=O)C(=O)N[C@H](CCCNC(=N)N)C(=O)N[C@H](CCCNC(=N)N)C(=O)N[C@H](CCCCN)C(=O)N[C@H](CCCCN)C(=O)N[C@H](CCCNC(=N)N)C(N)=O)C(C)C)C(C)C` [DRI-TAT-SP, Ac-repvclcrgivwrqvappfglesrrrqrrkkr-NH2] (HELM PEPTIDE1{[ac].[dR].[dE].[dP].[dV].[dC].[dL].[dC].[dR].G.[dI].[dV].[dW].[dR].[dQ].[dV].[dA].[dP].[dP].[dF].G.[dL].[dE].[dS].[dR].[dR].[dR].[dQ].[dR].[dR].[dK].[dK].[dR].[am]}$$$$V2.0), in data set [1] (MCF7 xenograft nude mice, deaths/animals), the “No. of toxicity death” value is listed as 0/6. Also, the “tumor volume at end of study” value in data set [1] (MCF7 xenograft, 20 days, DOX 1.2 mg/kg, DRI-TAT-SP 25 mg/kg) is recorded as 325±135 mm^3. In addition, the “Tumor inhibition (%)” value in data set [1] (MCF7 xenograft, i.v. once every 2 days, 10 injections in 20 days, DOX 1.2 mg/kg, DRI-TAT-SP 25 mg/kg) was 10.1%. In data set [1] (MCF7 xenograft, i.v. once every 2 days, 10 injections, DOX 1.2 mg/kg, DRI-TAT-SP 25 mg/kg), the “Tumor doubling time” value is 12.9 days. The “AUC(0-obs) | ng-min/mL” value in the data set “FIG. 7B” is recorded as 118,010 ng-min/mL. In the data set on MCF-7 CSC (MCF-7 breast CSCs, in the presence of DOX, 72-hour incubation, read-out: EC50 of reversing chemoresistance in the presence of DOX (DOX-EC50)), the EC50 is 2.3 ± 0.4 µM. Further, in “in vivo” (Balb/c), the concentration peaked (Cmax) at 870 ng/mL. The half-life worked out at 0.265 h in “in vivo” (Balb/c, distribution half-life t1/2α) and 7.37 h in “in vivo” (Balb/c, elimination half-life t1/2β). Also, in the data set “in vivo”, the “time of Cmax post administration” value turned out to be 5 min.
Regarding “RKKRRQRRRSELGFPPAVQRWVIGRCLCVPER [TAT-SP]”, in the data set with Akt pathway, the “activation of Akt pathway by ITGA2 (p-Akt T308)” value is given as “inhibits the activation of Akt pathway”. Also, the “modulation of CSC chemoresistance with respect to DOX, PTX and VCR” value with MCF-7 CSC (CSCs, DOX, PTX and VCR IC50 (FIG. 5D)) was “able to modulate CSC chemoresistance”. Moreover, the DOX accumulation entry in the data set with MRP1 is “high level of DOX accumulation”. Also, at ITGA2/CRT interaction, the “competition with CRT for the KXGFFKR motif / inhibition of immunoprecipitation of ITGA2” value is on record as “compete with CRT”. Moreover, the DOX-induced apoptosis result in the data set on CSCs is “leaves CSCs unprotected from DOX-induced apoptosis”.
In the case of “SELGFPPAVQRWVIGRCLCVPER [SP, peptide derived from the UBL domain of SHARPIN (residues 259-281)]”, the “competition with CRT for the KXGFFKR motif / inhibition of immunoprecipitation of ITGA2” value with ITGA2/CRT interaction is listed as “compete with CRT”.
